From the OPERA property sets (Mansouri et al. 2018)

| Structure (SMILES) | boiling point [°C] | melting point [°C] | log10 Koc (L/kg) | log10 vapour pressure (mmHg) | ready biodegradability | log10 Henry constant (atm·m³/mol) |
| --- | --- | --- | --- | --- | --- | --- |
| FC(F)(F)C(F)(F)N(C(F)(F)C(F)(F)F)C(F)(F)C(F)(F)F | 70.3 | -110 | – | – | – | – |
| Cc1cc2ccccc2nc1C | 263 | 68.5 | – | – | – | – |
| c1ccc2c(c1)ccc1ncccc12 | 352 | 94 | 4.64 | -4.25 | – | – |
| BrCCCOc1ccccc1 | – | 10.7 | – | – | – | – |
| O=C(CCl)N1CCOCC1 | – | 37 | – | – | – | – |
| COP(N)(=O)SC (configuration not stated) | – | 46 | 0.7 | -4.45 | – | – |
| Nc1ccc(N=Nc2ccc([N+](=O)[O-])cc2)cc1 | – | 215 | – | -9.52 | – | – |
| C#CCOc1cc(-n2nc(C(C)(C)C)oc2=O)c(Cl)cc1Cl | – | 131 | – | -7.73 | – | – |
| CCC(Br)=CBr | 150 | -49.5 | – | – | – | – |
| O=C(OC[C@H]1O[C@@H](O)[C@H](O)[C@@H](O)[C@@H]1O)c1ccccc1 | – | 121 | – | – | – | – |
| O=C(O)c1c(Cl)cccc1Cl | – | 144 | – | – | not readily biodegradable | – |
| O=[N+]([O-])c1ccc(CCc2ccc([N+](=O)[O-])cc2)cc1 | – | 181 | – | – | – | – |
| CCCCCCCCCCCC[N+](C)(C)[O-] | – | 132 | – | – | readily biodegradable | – |
| CCCCSCCCC | 185 | -79.7 | – | 0.0792 | – | – |
| c1ccc(CCc2ccccn2)cc1 | 289 | -3 | – | – | – | – |
| O=Cc1cccs1 | 197 | – | – | – | – | – |
| CCC1(C)OCCO1 | 116 | – | – | – | – | – |
| CCCCCCOCC | 143 | – | – | – | – | – |
| Cn1cnc([N+](=O)[O-])c1Sc1ncnc2nc[nH]c12 | – | 244 | – | – | – | – |
| C[C@@H](O)C1CC1 | 124 | -32.1 | – | – | – | – |
| CCCCn1c(=O)c2c(ncn2C)n(C)c1=O | – | 108 | – | – | – | – |
| CCOCOC(=O)c1ccccc1Nc1c(Cl)ccc(C)c1Cl | – | 73.5 | – | – | – | – |

| Structure (SMILES) | boiling point [°C] | melting point [°C] | log10 Koc (L/kg) | log10 vapour pressure (mmHg) | ready biodegradability | log10 Henry constant (atm·m³/mol) |
| --- | --- | --- | --- | --- | --- | --- |
| C[C@]12CC[C@H]3[C@@H](CCC4=C(Cl)C(=O)CC[C@@]43C)[C@@H]1CC[C@@H]2O | – | 189 | – | – | – | – |
| CC1=C(/C=C/C(C)=C/C=C/C(C)=C/C=C/C=C(C)/C=C/C=C(C)/C=C/C2=C(C)C[C@H](O)CC2(C)C)C(C)(C)CCC1 | – | 160 | – | – | – | – |
| O=C(O)Cc1cn(-c2ccccc2)nc1-c1ccc(Cl)cc1 | – | 150 | – | – | – | – |
| C=CCc1ccc(OC)cc1 | 216 | – | – | – | – | – |
| CC(C)(C)C1CCC(=O)CC1 | – | 48.5 | – | – | – | – |
| ClCC=C(Cl)Cl | 132 | – | – | – | – | – |
| OCC(Br)(Br)Br | – | 81 | – | – | – | – |
| C=CCN=C=S | 152 | -80 | – | 0.568 | – | – |
| Nc1nc(=O)[nH]cc1F | – | 296 | – | – | – | – |
| CCOc1ccc2nc(S)sc2c1 | – | 199 | – | – | – | – |
| CC1(N)CCCC1 | 121 | – | – | – | – | – |
| CN1[C@@H](CC(=O)c2ccccc2)CCC[C@H]1C[C@H](O)c1ccccc1 | – | 130 | – | – | – | – |
| C[C@H](CCC(=O)NCC(=O)O)[C@H]1CC[C@H]2[C@@H]3[C@H](O)C[C@@H]4C[C@H](O)CC[C@]4(C)[C@H]3C[C@H](O)[C@]12C | – | 166 | – | – | – | – |
| CCCC(=NOCC)C1=C(O)CC(CC(C)SCC)CC1=O (configuration not stated) | – | – | 2 | -6.8 | – | – |
| O=C1CCCN1CCO | 295 | 20 | – | – | – | – |
| NS(=O)(=O)c1cc(Cl)c(Cl)c(S(N)(=O)=O)c1 | – | 229 | – | – | – | – |
| ClCC1CC1 | 88 | -90.9 | – | – | – | – |
| Cc1ccccc1NCc1ccccc1 | 302 | 60 | – | – | – | – |
| CCn1ccc(NS(=O)(=O)c2ccc(N)cc2)nc1=O | – | 166 | – | – | – | – |
| C=C(CC(C)(C)c1ccccc1)c1ccccc1 | – | – | – | – | not readily biodegradable | – |
| CCOC(=O)c1cc2ccccc2o1 | 276 | 30.5 | – | – | – | – |
| Cc1cccc(NC(N)=O)c1 | – | – | 1.56 | – | – | – |

| Structure (SMILES) | boiling point [°C] | melting point [°C] | log10 Koc (L/kg) | log10 vapour pressure (mmHg) | ready biodegradability | log10 Henry constant (atm·m³/mol) |
| --- | --- | --- | --- | --- | --- | --- |
| C1CCc2nnnn2CC1 | – | 59.5 | – | – | – | – |
| O=C(C=CC(=O)Oc1ccccc1)Oc1ccccc1 | – | 73 | – | – | – | – |
| c1ccc(COP(OCc2ccccc2)OCc2ccccc2)cc1 | – | – | – | – | readily biodegradable | – |
| C[C@]12CC[C@H](O)C[C@H]1CC[C@@H]1[C@@H]2CC[C@]2(C)[C@@H](C3=CC(=O)OC3)CC[C@]12O | – | 253 | – | – | – | – |
| N=C(N)NOCC[C@H](N)C(=O)O | – | 184 | – | – | – | – |
| N=C(N)NC(=N)NCCc1ccccc1 | – | 176 | – | – | – | – |
| Oc1cc2ccccc2cc1O | – | 162 | – | – | – | – |
| CC(=O)O.CCCCCCCCCCCCCCCCCC1=NCCN1 | – | 65 | – | – | – | – |
| O=C(O)COc1ccc2ccccc2c1 | – | 156 | – | – | – | – |
| COC(=O)C(C)N(C(=O)c1ccco1)c1c(C)cccc1C (configuration not stated) | – | 70 | – | -6.28 | – | – |
| CC[C@@H](N)CO | 178 | -2 | – | – | – | – |
| CCOP(=O)(NC(C)C)Oc1ccc(SC)c(C)c1 (configuration not stated) | – | 49 | 2.51 | -6 | – | – |
| BrCc1ccccc1Br | – | 31 | – | – | – | – |
| CCn1c2ccccc2c2cc(N)ccc21 | – | 99 | – | – | – | – |
| CCOC(=O)CSc1nc(C(C)(C)C)nn1C(=O)N(C)C | – | 53 | – | -6.92 | – | – |
| CC(C)(COCc1cccc(Oc2ccccc2)c1)c1ccc(OC(F)(F)Br)cc1 | – | – | – | -8.23 | – | – |
| CCCCCCCCOc1ccc(C(=O)c2ccccc2)c(O)c1 | – | 48.5 | – | – | not readily biodegradable | – |
| Nc1ccccc1N | 257 | 102 | – | -2.69 | not readily biodegradable | – |
| O=[N+]([O-])c1ccccc1 | 211 | 5.7 | 1.94 | -0.611 | not readily biodegradable | -4.62 |
| CCC(C)(C)N | 77 | -105 | – | – | – | – |
